A word on the IC50: it is the point on the concentration scale where inhibition reaches its midpoint.

We go through 30 compounds from patent US7589089B2, “Inhibitors for GlyT-1” (Hoffmann-La Roche Inc., priority 2006, dated 2009).

In this experiment the target is T1, mGlyT-1b (Mus musculus, UniProt P28571).
T1 construct: host or cells: Flp-in-CHO
T1 sequence (P28571 1-651 isoform P28571-2): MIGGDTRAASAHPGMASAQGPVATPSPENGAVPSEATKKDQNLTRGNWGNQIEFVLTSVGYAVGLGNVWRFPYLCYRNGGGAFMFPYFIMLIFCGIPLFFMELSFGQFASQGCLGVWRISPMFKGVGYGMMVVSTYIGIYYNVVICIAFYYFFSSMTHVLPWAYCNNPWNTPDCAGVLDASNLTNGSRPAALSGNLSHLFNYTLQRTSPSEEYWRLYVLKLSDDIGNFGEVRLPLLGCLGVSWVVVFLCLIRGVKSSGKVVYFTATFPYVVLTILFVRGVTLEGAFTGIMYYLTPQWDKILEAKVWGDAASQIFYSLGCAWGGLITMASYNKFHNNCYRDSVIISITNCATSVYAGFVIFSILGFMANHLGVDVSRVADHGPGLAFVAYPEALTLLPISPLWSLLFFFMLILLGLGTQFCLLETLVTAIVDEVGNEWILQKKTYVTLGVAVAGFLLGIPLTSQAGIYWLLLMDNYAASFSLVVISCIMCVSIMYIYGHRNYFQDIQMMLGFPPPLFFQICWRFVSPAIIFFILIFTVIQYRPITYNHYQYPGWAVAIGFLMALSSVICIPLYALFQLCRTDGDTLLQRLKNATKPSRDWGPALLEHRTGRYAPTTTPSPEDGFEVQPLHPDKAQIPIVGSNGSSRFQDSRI
Description: Glycine Uptake Inhibition Assay (mGlyT-1b). The format is cell-based. As for the experimental part:
DMEM complete medium: Nutrient mixture F-12 (Gibco Life-technologies), fetal bovine serum (FBS) 5%, (Gibco life technologies), Penicillin/Streptomycin 1% (Gibco life technologies), Hygromycin 0.6 mg/ml (Gibco life technologies), Glutamine 1 mM Gibco life technologies)
Uptake buffer (UB): 150 mM NaCl, 10 mM Hepes-Tris, pH 7.4, 1 mM CaCl2, 2.5 mM KCl, 2.5 mM MgSO4, 10 mM (+) D-glucose.
Flp-in™-CHO (Invitrogen Cat n° R758-07) cells stably transfected with mGlyT1b cDNA.
Glycine Uptake Inhibition Assay (mGlyT-1b)
On day 1 mammalian cells, (Flp-in™-CHO), transfected with mGlyT-1b cDNA, were plated at the density of 40,000 cells/well in complete F-12 medium, without hygromycin in 96-well culture plates. On day 2, the medium was aspirated and the cells were washed twice with uptake buffer (UB). The cells were then incubated for 20 min at 22° C. with either (i) no potential competitor, (ii) 10 mM non-radioactive glycine, (iii) a concentration of a potential inhibitor. A range of concentrations of the potential inhibitor was used to generate data for calculating the concentration of inhibitor resulting in 50% of the effect (e.g. IC50, the concentration of the competitor inhibiting glycine uptake of 50%). A solution was then immediately added containing [^3H]-glycine 60 nM (11-16 Ci/mmol) and 25 μM non-radioactive glycine. The plates were incubated with gentle shaking and the reaction was stopped by aspiration of the mixture and washing (three times) with ice-cold UB. The cells were lysed with scintillation liquid, shaken 3 hours and the radioactivity in the cells was counted using a scintillation counter.

`O=C(CN(C(=O)c1ccc(C(F)(F)F)nc1)c1ccccc1)Nc1ccc(Cl)c(Cl)c1` [Example 37, N-[(3,4-Dichloro-phenylcarbamoyl)-methyl]-N-phenyl-6-trifluoromethyl-nicotinamide]: the IC50 was 154 nM.
The value for `O=C(CN(C(=O)c1ccc(OC(F)(F)F)cc1)c1ccccc1)Nc1ccc(Cl)c(Cl)c1` [Example 114, N-[(3,4-Dichloro-phenylcarbamoyl)-methyl]-N-phenyl-4-trifluoromethoxy-benzamide] was 91 nM.
With `O=C(CN(Cc1ccccc1Cl)C(=O)c1ccc(F)cc1)Nc1cccc(C(F)(F)F)c1` [Example 55, N-(2-Chloro-benzyl)-4-fluoro-N-[(3-trifluoromethyl-phenylcarbamoyl)-methyl]-benzamide] the figure was 97 nM.
Consider `O=C(CN(Cc1cccc(F)c1)C(=O)c1ccc(Cl)cc1)Nc1cccc(Cl)c1` [Example 8, 4-Chloro-N-[(3-chloro-phenylcarbamoyl)-methyl]-N-(3-fluoro-benzyl)-benzamide], for which the IC50 is 128 nM.
With `COc1ccc(C(=O)N(CC(=O)Nc2cccc(C(F)(F)F)c2)c2ccccc2)cc1` [Example 27, 4-Methoxy-N-phenyl-N-[(3-trifluoromethyl-phenylcarbamoyl)-methyl]-benzamide] the figure was 148 nM; with `O=C(CN(Cc1cc(F)cc(F)c1)C(=O)c1cc2ccccc2s1)Nc1cccc(F)c1` [Example 63, Benzo[b]thiophene-2-carboxylic acid (3,5-difluoro-benzyl)-[(3-fluoro-phenylcarbamoyl)-methyl]-amide], 70 nM.
With `O=C(CN(Cc1ccccc1Cl)C(=O)c1cccc(F)c1)Nc1cccc(C(F)(F)F)c1` [Example 52, N-(2-Chloro-benzyl)-3-fluoro-N-[(3-trifluoromethyl-phenylcarbamoyl)-methyl]-benzamide] the figure was 153 nM; with `N#Cc1ccc(C(=O)N(CC(=O)Nc2cccc(C(F)(F)F)c2)Cc2ccccc2Cl)cc1` [Example 43, N-(2-Chloro-benzyl)-4-cyano-N-[(3-trifluoromethyl-phenylcarbamoyl)-methyl]-benzamide], 339 nM; with `O=C(CN(Cc1ccccc1Cl)C(=O)c1ccc(OC(F)(F)F)cc1)Nc1cccc(C(F)(F)F)c1` [Example 54, #N!-(2-Chloro-benzyl)-4-trifluoromethoxy-#N!-[(3-trifluoromethyl-phenylcarbamoyl)-methyl]-benzamide], 196 nM.
The value for `O=C(CN(Cc1ccccc1Cl)C(=O)c1ccc(Cl)cc1)Nc1cccc(F)c1` [Example 59, 4-Chloro-N-(2-chloro-benzyl)-N-[(3-fluoro-phenylcarbamoyl)-methyl]-benzamide] was 166 nM.
The compound `O=C(CN(C(=O)c1ccccc1F)c1ccccc1)Nc1ccc(Cl)c(Cl)c1` [Example 39, N-[(3,4-Dichloro-phenylcarbamoyl)-methyl]-2-fluoro-N-phenyl-benzamide] registered an IC50 of 291 nM.
The compound `O=C(CN(Cc1cc(F)cc(F)c1)C(=O)c1ccc(Cl)cc1)Nc1ccc(F)c(Cl)c1` [Example 89, 4-Chloro-N-[(3-chloro-4-fluoro-phenylcarbamoyl)-methyl]-N-(3,5-difluoro-benzyl)-benzamide] gave a 50% inhibitory concentration (IC50) of 306 nM.
`O=C(CN(C(=O)COc1ccc(Cl)cc1)c1ccccc1)Nc1ccc(Cl)c(Cl)c1` [Example 118, 2-(4-Chloro-phenoxy)-N-[(3,4-dichloro-phenylcarbamoyl)-methyl]-N-phenyl-acetamide] gave an IC50 of 259 nM.
With `O=C(CN(Cc1ccc(F)cc1F)C(=O)c1ccc(Cl)cc1)Nc1cccc(Cl)c1` [Example 5, 4-Chloro-N-[(3-chloro-phenylcarbamoyl)-methyl]-N-(2,4-difluoro-benzyl)-benzamide] the figure was 160 nM; with `O=C(CN(Cc1ccccc1F)C(=O)c1ccc(N2CCOCC2)nc1)Nc1cccc(Cl)c1` [Example 119, N-[(3-Chloro-phenylcarbamoyl)-methyl]-N-(2-fluoro-benzyl)-6-morpholin-4-yl-nicotinamide], 355 nM.
The value for `O=C(CN(Cc1ccccc1Cl)C(=O)c1ccc(F)cc1)Nc1ccc(F)c(Cl)c1` [Example 76, N-(2-Chloro-benzyl)-N-[(3-chloro-4-fluoro-phenylcarbamoyl)-methyl]-4-fluoro-benzamide] was 159 nM; that for `O=C(CN(Cc1c(F)cccc1F)C(=O)c1cc2ccccc2s1)Nc1ccc(F)c(Cl)c1` [Example 69, Benzo[b]thiophene-2-carboxylic acid [(3-chloro-4-fluoro-phenylcarbamoyl)-methyl]-(2,6-difluoro-benzyl)-amide] was 90 nM; that for `O=C(CN(Cc1c(F)cccc1F)C(=O)c1ccc(Cl)cc1)Nc1cccc(Cl)c1` [Example 1, 4-Chloro-N-[(3-chloro-phenylcarbamoyl)-methyl]-N-(2,6-difluoro-benzyl)-benzamide] was 52 nM.
The value for `O=C(CN(Cc1ccc(F)c(F)c1)C(=O)c1ccc(Cl)cc1)Nc1cccc(Cl)c1` [Example 2, 4-Chloro-N-[(3-chloro-phenylcarbamoyl)-methyl]-N-(3,4-difluoro-benzyl)-benzamide] was 265 nM.
`O=C(CN(Cc1cccc(F)c1F)C(=O)c1cc2ccccc2s1)Nc1ccc(F)c(Cl)c1` [Example 80, Benzo[b]thiophene-2-carboxylic acid [(3-chloro-4-fluoro-phenylcarbamoyl)-methyl]-(2,3-difluoro-benzyl)-amide]: the half-inhibitory concentration (IC50) stood at 66 nM.
Consider `O=C(CN(Cc1ccccc1Cl)C(=O)c1ccc(Cl)cc1)Nc1cccc(Cl)c1` [Example 106, 4-Chloro-N-(2-chloro-benzyl)-N-[(3-chloro-phenylcarbamoyl)-methyl]-benzamide], for which the IC50 came to 25 nM.
With `Cc1ccccc1CN(CC(=O)Nc1cccc(Cl)c1)C(=O)c1ccc(Cl)cc1` [Example 104, 4-Chloro-N-[(3-chloro-phenylcarbamoyl)-methyl]-N-(2-methyl-benzyl)-benzamide] the figure was 209 nM; with `COc1ccc(C(=O)N(CC(=O)Nc2ccc(Cl)c(Cl)c2)C2CCCC2)cc1` [Example 126, N-Cyclopentyl-N-[(3,4-dichloro-phenylcarbamoyl)-methyl]-4-methoxy-benzamide], 357 nM; with `COc1ccc(C(=O)N(CC(=O)Nc2cccc(Cl)c2)Cc2cc(Cl)cc(Cl)c2)cc1` [Example 12, N-[(3-Chloro-phenylcarbamoyl)-methyl]-N-(3,5-dichloro-benzyl)-4-methoxy-benzamide], 243 nM.
With `COc1ccc(C(=O)N(CC(=O)Nc2cccc(Cl)c2)Cc2ccsc2)cc1` [Example 10, N-[(3-Chloro-phenylcarbamoyl)-methyl]-4-methoxy-N-thiophen-3-ylmethyl-benzamide] the figure was 285 nM.
With `COc1ccc(C(=O)N(CC(=O)Nc2cccc(Cl)c2)Cc2cccc(Cl)c2)cc1` [Example 14, N-(3-Chloro-benzyl)-N-[(3-chloro-phenylcarbamoyl)-methyl]-4-methoxy-benzamide] the figure was 24 nM.
`N#Cc1ccc(C(=O)N(CC(=O)Nc2ccc(F)c(Cl)c2)Cc2c(F)cccc2F)cc1` [Example 88, N-[(3-Chloro-4-fluoro-phenylcarbamoyl)-methyl]-4-cyano-N-(2,6-difluoro-benzyl)-benzamide]: the IC50 came out at 199 nM.
`O=C(CN(Cc1ccco1)C(=O)c1ccc(Cl)cc1)Nc1cccc(Cl)c1` [Example 107, 4-Chloro-N-[(3-chloro-phenylcarbamoyl)-methyl]-N-furan-2-ylmethyl-benzamide]: half-maximal inhibition (IC50) required 199 nM.
The compound `O=C(CN(Cc1ccccc1Cl)C(=O)c1cc2ccccc2s1)Nc1cccc(F)c1` [Example 57, Benzo[b]thiophene-2-carboxylic acid (2-chloro-benzyl)-[(3-fluoro-phenylcarbamoyl)-methyl]-amide] displayed an IC50 of 88 nM.
With `O=C(CN(Cc1cccc(Cl)c1)C(=O)c1ccc(Cl)cc1)Nc1cccc(Cl)c1` [Example 105, 4-Chloro-N-(3-chloro-benzyl)-N-[(3-chloro-phenylcarbamoyl)-methyl]-benzamide] the figure was 21 nM.
